# Results published in patent publication US11202787B2, “Use of ACTH in assessment and prophylactic treatment of hypokalemia associated with glucocorticoid receptor modulator treatment of Cushing's syndrome patients” (Corcept Therapeutics, Inc., priority 2018, dated 2021).
# Assays:
# cortisol [1] = assay: Total serum cortisol during mifepristone treatment of Cushing's syndrome patients; assay type: in vivo, human; conditions: for Total Serum Cortisol Visit Values: Mean ± SD
# Description: The term “measuring the level,” in the context of cortisol, ACTH, mifepristone, or other compounds, refers to determining, detecting, or quantitating the amount, level, or concentration of, for example, cortisol, ACTH, mifepristone, or other compound in a sample obtained from a subject. Plasma or serum samples are often used for measuring ACTH or cortisol level.
# The types of samples that are suitable for cortisol determination can be serum, plasma, saliva, urine, or any other biological fluid taken from a subject. In preferred embodiments, the sample is a serum sample, or is a plasma sample. The level of cortisol can be measured using various methods, including but not limited to, immunoassays, e.g., competitive immunoassay, radioimmunoassay (MA), immunofluorometric enzyme assay, and ELISA; competitive protein-binding assays; liquid chromatography (e.g., HPLC); and mass spectrometry, e.g., high-performance liquid chromatography/triple quadrupole-mass spectrometry (LC-MS/MS). In preferred embodiments, cortisol levels are measured using LC-MS/MS, such as performed by Quest Diagnostics (Secaucus, N.J. 07094).
# (§1) The Cushing's syndrome study reported herein was conducted in accordance with the Declaration of Helsinki and Good Clinical Practice (GCP) according to International Conference on Harmonization (ICH) guidelines.
# (§2) Dosing Schedule Dosing was started with 300 mg of mifepristone once per day for 14 days. After 14 days, if no clinical improvement was seen but the drug was well tolerated, the dose of mifepristone was increased to 600 mg once per day. After 4 weeks of dosing at 600 mg once per day, if no clinical improvement was seen but the drug was well tolerated, the dose was increased to 900 mg once per day. Dose escalation was based on weight with the maximum dose no higher than 20 mg/kg/day. […] After 4 weeks of dosing at 900 mg once per day, if no clinical improvement was seen but the drug was well tolerated, the dose was increased to 1200 mg once per day. Study duration was 24 weeks.
# (§3) Potassium levels were obtained on every subject at either screening or the pre-drug administration baseline visit, and then also at every scheduled post-baseline visit. Potassium levels post-baseline were therefore obtained as early as day 7 and through day 210 (week 30 was the last visit and was the 6 week follow-up visit). ACTH, and cortisol were measured at six visits (week 2 (day 14), week 6 (day 42), week 10 (day 70), week 16 (day 112), and week 24 (day 168) week 6 follow-up (day 210)).
# cortisol [2] = assay: 24-hour urine cortisol during mifepristone treatment of Cushing's syndrome patients; assay type: in vivo, human; conditions: Mean ± SD
# Description: as §1, §2, §3
# [3] = system: psychotic major depression (PMD) subjects; assay: Double blind psychotic major depression (PMD) trials: hypokalemia; assay type: in vivo, human
# Description: (§4) Clinically meaningful hypokalemia (≤3.1) has been reported in 16 of 821 (1.9%) mifepristone treated subjects (12 in completed double blind PMD trials, and 4 in a completed Alzheimer's trial), and in 5 of 626 (0.8%) placebo treated subjects in completed PMD trials.
# [4] = system: subjects in an Alzheimer's study; assay: Alzheimer's study: hypokalemia; assay type: in vivo, human
# Description: as §4
# healthy volunteers = assay: Previous clinical studies in healthy volunteers: adverse events; assay type: in vivo, human
# Description: Hypokalemia and rash appear to be more common in subjects receiving mifepristone than in the control groups.
# [5] = system: Cushing's syndrome patients; conditions: cited from earlier work
# [6] = Day 210 (6 week follow-up), Hypokalemic
# [7] = Day 210 (6 week follow-up), Non-Hypokalemic
compound,measurement,setting,value
"CC#C[C@]1(O)CC[C@H]2[C@@H]3CCC4=CC(=O)CCC4=C3[C@@H](c3ccc(N(C)C)cc3)C[C@@]21C [mifepristone, 11β-(4-dimethylaminophenyl)-17β-hydroxy-17α-(1-propynyl)-estra-4,9-dien-3-one]",serum cortisol increase during mifepristone treatment,cortisol [1]; 43 subjects with Cushing's disease,increased to a smaller degree
same,Total Serum Cortisol Visit Values,"cortisol [1]; Day 14, Hypokalemic",1261 ± 786 (8) nmol/L
same,Total Serum Cortisol Visit Values,"cortisol [1]; Day 14, Non-Hypokalemic",782 ± 246 (38) nmol/L
same,Total Serum Cortisol Visit Values,"cortisol [1]; Day 42, Hypokalemic",1274 ± 401 (6) nmol/L
same,Total Serum Cortisol Visit Values,"cortisol [1]; Day 42, Non-Hypokalemic",828 ± 249 (35) nmol/L
same,Total Serum Cortisol Visit Values,"cortisol [1]; Day 70, Hypokalemic",1390 ± 283 (6) nmol/L
same,Total Serum Cortisol Visit Values,"cortisol [1]; Day 70, Non-Hypokalemic",1025 ± 546 (30) nmol/L
same,Total Serum Cortisol Visit Values,"cortisol [1]; Day 112, Hypokalemic",1318 ± 677 (9) nmol/L
same,Total Serum Cortisol Visit Values,"cortisol [1]; Day 112, Non-Hypokalemic",813 ± 318 (23) nmol/L
same,Total Serum Cortisol Visit Values,"cortisol [1]; Day 168, Hypokalemic",1298 ± 597 (5) nmol/L
same,Total Serum Cortisol Visit Values,"cortisol [1]; Day 168, Non-Hypokalemic",948 ± 537 (37) nmol/L
same,Total Serum Cortisol Visit Values,cortisol [1]; [6],1228 ± 561 (3) nmol/L
same,Total Serum Cortisol Visit Values,cortisol [1]; [7],696 ± 477 (37) nmol/L
same,24 Hour Urine Cortisol (nmol/24 hr)/ACTH Ratio Visit Values,"cortisol [2]; Day 42, Hypokalemic",26.1 ± 18.4 (6)
same,24 Hour Urine Cortisol Visit Change Values from Baseline,"cortisol [2]; Day 42, Hypokalemic",641 ± 3678 (6) nmol/24 hr
same,24 Hour Urine Cortisol Visit Values,"cortisol [2]; Day 42, Hypokalemic",4373 ± 5347 (6) nmol/24 hr
same,24 Hour Urine Cortisol (nmol/24 hr)/ACTH Ratio Visit Values,"cortisol [2]; Day 42, Non-Hypokalemic",7.9 ± 6.0 (35)
same,24 Hour Urine Cortisol Visit Change Values from Baseline,"cortisol [2]; Day 42, Non-Hypokalemic",329 ± 967 (35) nmol/24 hr
same,24 Hour Urine Cortisol Visit Values,"cortisol [2]; Day 42, Non-Hypokalemic",886 ± 1060 (35) nmol/24 hr
same,24 Hour Urine Cortisol (nmol/24 hr)/ACTH Ratio Visit Values,"cortisol [2]; Day 70, Hypokalemic",33.5 ± 16.1 (6)
same,24 Hour Urine Cortisol Visit Change Values from Baseline,"cortisol [2]; Day 70, Hypokalemic",4856 ± 4805 (6) nmol/24 hr
same,24 Hour Urine Cortisol Visit Values,"cortisol [2]; Day 70, Hypokalemic",9132 ± 9321 (6) nmol/24 hr
same,24 Hour Urine Cortisol (nmol/24 hr)/ACTH Ratio Visit Values,"cortisol [2]; Day 70, Non-Hypokalemic",17.0 ± 32.7 (30)
same,24 Hour Urine Cortisol Visit Change Values from Baseline,"cortisol [2]; Day 70, Non-Hypokalemic",1045 ± 3500 (30) nmol/24 hr
same,24 Hour Urine Cortisol Visit Values,"cortisol [2]; Day 70, Non-Hypokalemic",1696 ± 3387 (30) nmol/24 hr
same,24 Hour Urine Cortisol (nmol/24 hr)/ACTH Ratio Visit Values,"cortisol [2]; Day 112, Hypokalemic",30.9 ± 31.0 (9)
same,24 Hour Urine Cortisol Visit Change Values from Baseline,"cortisol [2]; Day 112, Hypokalemic",2916 ± 2593 (9) nmol/24 hr
same,24 Hour Urine Cortisol Visit Values,"cortisol [2]; Day 112, Hypokalemic",3552 ± 2827 (9) nmol/24 hr
same,24 Hour Urine Cortisol (nmol/24 hr)/ACTH Ratio Visit Values,"cortisol [2]; Day 112, Non-Hypokalemic",9.6 ± 16.3 (23)
same,24 Hour Urine Cortisol Visit Change Values from Baseline,"cortisol [2]; Day 112, Non-Hypokalemic",104 ± 5293 (23) nmol/24 hr
same,24 Hour Urine Cortisol Visit Values,"cortisol [2]; Day 112, Non-Hypokalemic",1314 ± 3351 (23) nmol/24 hr
same,24 Hour Urine Cortisol (nmol/24 hr)/ACTH Ratio Visit Values,"cortisol [2]; Day 168, Hypokalemic",19.3 ± 9.5 (5)
same,24 Hour Urine Cortisol Visit Change Values from Baseline,"cortisol [2]; Day 168, Hypokalemic",4128 ± 6624 (5) nmol/24 hr
same,24 Hour Urine Cortisol Visit Values,"cortisol [2]; Day 168, Hypokalemic",5615 ± 5053 (5) nmol/24 hr
same,24 Hour Urine Cortisol (nmol/24 hr)/ACTH Ratio Visit Values,"cortisol [2]; Day 168, Non-Hypokalemic",12.4 ± 15.5 (36)
same,24 Hour Urine Cortisol Visit Change Values from Baseline,"cortisol [2]; Day 168, Non-Hypokalemic",512 ± 4575 (36) nmol/24 hr
same,24 Hour Urine Cortisol Visit Values,"cortisol [2]; Day 168, Non-Hypokalemic",1444 ± 3127 (36) nmol/24 hr
same,24 Hour Urine Cortisol (nmol/24 hr)/ACTH Ratio Visit Values,cortisol [2]; [6],11.5 ± 7.5 (3)
same,24 Hour Urine Cortisol Visit Change Values from Baseline,cortisol [2]; [6],2497 ± 3776 (3) nmol/24 hr
same,24 Hour Urine Cortisol Visit Values,cortisol [2]; [6],5129 ± 6335 (3) nmol/24 hr
same,24 Hour Urine Cortisol (nmol/24 hr)/ACTH Ratio Visit Values,cortisol [2]; [7],12.5 ± 27.9 (35)
same,24 Hour Urine Cortisol Visit Change Values from Baseline,cortisol [2]; [7],471 ± 2843 (35) nmol/24 hr
same,24 Hour Urine Cortisol Visit Values,cortisol [2]; [7],1423 ± 6086 (35) nmol/24 hr
same,Clinically meaningful hypokalemia (≤3.1),"[3]; 16 of 821 mifepristone treated subjects, PMD and Alzheimer's trials together",1.9%
same,Hypokalemia in the range of 2.4 to 3.4 mEq/L,[3]; 61 of 782 mifepristone treated subjects,7.8%
same,"Clinically meaningful hypokalemia (≤3.1), subjects",[3]; completed double blind PMD trials,12
same,"Clinically meaningful hypokalemia (≤3.1), subjects",[4]; completed Alzheimer's trial,4
same,Hypokalemia in the range of 2.8 to 3.5 mEq/L,"[4]; out of 33 subjects, 300 mg per day for 16 weeks",9 subjects
same,frequently reported adverse events,"healthy volunteers; previous clinical studies, healthy volunteers","headache, gastrointestinal symptoms including diarrhea, nausea and vomiting, and rash"
same,Hypokalemia and rash versus control groups,healthy volunteers; subjects receiving mifepristone vs control groups,more common
same,patients with serum potassium levels less than 3.5 mEq/L,[5]; of 43 Cushing's syndrome patients (ACTH-dependent and ACTH-independent),22 patients
same,patients with serum potassium levels less than 2.5 mEq/L (severe hypokalemia),[5]; of the 22 hypokalemic of 43 patients,3 patients
